Target: T1, human CXCR6 (Homo sapiens, UniProt O00574)
T1 construct: expressed in transfected cells
Assay: Radioligand Binding Assay (125I-CXCL16 displacement)
Conditions: L1.2 cells stably transfected with human CXCR6 cDNA, 0.1 nM 125I-CXCL16, 4° C., three-hour incubation; read-out: Potency (IC50)
Procedure, shortened: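 L1.2 cells stably expressing human CXCR6 incubated 3 h at 4 °C in HBSS/0.1% BSA with 0.1 nM 125I-CXCL16 and graded compound concentrations. Bound radioactivity collected by filtration and counted; IC50 from 3-parameter nonlinear regression.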

T1 sequence (O00574 whole entry): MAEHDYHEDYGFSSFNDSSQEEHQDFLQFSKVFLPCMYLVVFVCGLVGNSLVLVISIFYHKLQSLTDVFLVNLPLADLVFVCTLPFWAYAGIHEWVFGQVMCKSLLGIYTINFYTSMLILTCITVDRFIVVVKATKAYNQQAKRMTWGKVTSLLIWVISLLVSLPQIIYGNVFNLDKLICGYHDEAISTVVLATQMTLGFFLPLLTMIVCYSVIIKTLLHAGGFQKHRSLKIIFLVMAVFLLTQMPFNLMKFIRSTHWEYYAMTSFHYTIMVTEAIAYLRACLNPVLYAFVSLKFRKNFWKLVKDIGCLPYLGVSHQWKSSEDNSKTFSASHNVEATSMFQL

SMILES | IC50
CCOc1cc(NC(=O)C(CO)C2CCOCC2)ccc1S(=O)(=O)Nc1cccc(OC(F)(F)F)c1 (stereo not shown) [Example 1.092] | 200 to 750 nM
Cc1cc(NC(=O)c2c(C)noc2C)ccc1S(=O)(=O)Nc1cccc(C(F)(F)F)c1 [Example 1.325] | 2000 to 20000 nM
CCOc1cc(NC(=O)[C@@H](CO)c2ccccc2)ccc1S(=O)(=O)Nc1ccc(F)c(C)c1 [Example 1.405] | 200 to 750 nM
Cc1cc(NC(=O)[C@@H](CO)c2ccccc2)ccc1S(=O)(=O)Nc1cccc(C(F)(F)F)c1 [Example 1.459] | 750 to 2000 nM
Cc1cc(NC(=O)c2ccoc2C)ccc1S(=O)(=O)Nc1cccc(C(F)(F)F)c1 [Example 1.019] | 200 to 750 nM
CCOc1cc(NC(=O)CC(O)CO)ccc1S(=O)(=O)Nc1cccc(OC(F)(F)F)c1 (stereo not shown) [Example 1.387] | 750 to 2000 nM
Cc1cc(NC(=O)c2cncn2C)ccc1S(=O)(=O)Nc1cccc(C(F)(F)F)c1 [Example 1.048] | 2000 to 20000 nM
CCOc1cc(NC(=O)C2CC=CC[C@H]2N)ccc1S(=O)(=O)Nc1cccc(OC(F)(F)F)c1 (mixture of isomers) [Example 1.026] | 750 to 2000 nM
CCOc1cc(NC(=O)[C@@H](CO)c2ccccc2)ccc1S(=O)(=O)Nc1ccc(Cl)c(Cl)c1 [Example 1.175] | 200 to 750 nM
Cc1cc(NC(=O)C2CCN(C(=O)OC(C)(C)C)CC2)ccc1S(=O)(=O)Nc1cccc(C(F)(F)F)c1 [Example 1.365] | 2000 to 20000 nM
Cc1cc(NC(=O)C(C)(C)C)ccc1S(=O)(=O)Nc1cccc(C(F)(F)F)c1 [Example 1.434] | 2000 to 20000 nM
CCOc1cc(NC(=O)[C@@H](O)C(C)C)ccc1S(=O)(=O)Nc1cccc(C(C)(F)F)c1 [Example 1.261] | ≤ 200 nM
CCOc1cc(NC(=O)[C@@H](CO)C(C)C)ccc1S(=O)(=O)Nc1cccc(Cl)c1C(F)(F)F [Example 1.159] | 2000 to 20000 nM
C=Cc1ccc(NS(=O)(=O)c2ccc(NC(=O)[C@@H](CO)C3CC3)cc2OCC)cc1C [Example 1.146] | ≤ 200 nM
COc1cccc(C(=O)Nc2ccc(S(=O)(=O)Nc3cccc(C(F)(F)F)c3)c(C)c2)c1 [Example 1.534] | 2000 to 20000 nM
Cn1nccc1C(=O)Nc1ccc(S(=O)(=O)Nc2cccc(C(F)(F)F)c2)c(OC(F)(F)F)c1 [Example 1.461] | 750 to 2000 nM
COc1cc(NC(=O)C(O)C(C)C)ccc1S(=O)(=O)Nc1cccc(C(F)(F)F)c1 (stereo not shown) [Example 1.535] | ≤ 200 nM
COc1cc(NC(=O)C2CC3C=CC2O3)ccc1S(=O)(=O)Nc1cccc(OC(F)(F)F)c1 (stereo not shown) [Example 1.370] | 750 to 2000 nM
CCOc1cc(NC(=O)c2ccc(OC)nc2)ccc1S(=O)(=O)Nc1cccc(OC(F)(F)F)c1 [Example 1.413] | ≤ 200 nM
CCOc1cc(NC(=O)C2(COC)CC2)ccc1S(=O)(=O)Nc1cccc(OC(F)(F)F)c1 [Example 1.302] | 750 to 2000 nM
CCOc1cc(NC(=O)CC(C)(O)CC)ccc1S(=O)(=O)Nc1cccc(OC(F)(F)F)c1 (stereo not shown) [Example 1.052] | 200 to 750 nM
Cc1cc(NC(=O)[C@@H](O)c2ccccc2)ccc1S(=O)(=O)Nc1cccc(OC(F)(F)F)c1 [Example 1.266] | 200 to 750 nM
CCOc1cc(NC(=O)[C@@H](CO)C(C)C)ccc1S(=O)(=O)Nc1ccc(CO)c(C(F)(F)F)c1 [Example 1.006] | 2000 to 20000 nM

SMILES | IC50
COc1cc(NC(=O)C(C)C2CCCCC2)ccc1S(=O)(=O)Nc1cccc(C(F)(F)F)c1 (stereo not shown) [Example 1.273] | 750 to 2000 nM
CCOc1cc(NC(=O)C2COC[C@H]2O)ccc1S(=O)(=O)Nc1cccc(OC(F)(F)F)c1 (mixture of isomers) [Example 1.518] | 200 to 750 nM
COc1cc(NC(=O)C2CC(=O)N(C)C2)ccc1S(=O)(=O)Nc1cccc(OC(F)(F)F)c1 (stereo not shown) [Example 1.442] | 2000 to 20000 nM
CCOc1cc(NC(=O)c2ccnc(N)c2)ccc1S(=O)(=O)Nc1cccc(OC(F)(F)F)c1 [Example 1.117] | ≤ 200 nM
CCOc1cc(NC(=O)[C@H]2CC(C)=C(C)C[C@@H]2C(=O)O)ccc1S(=O)(=O)Nc1cccc(OC(F)(F)F)c1 [Example 1.096] | ≤ 200 nM
CCOc1cc(NC(=O)[C@@H](CO)c2ccccc2)ccc1S(=O)(=O)Nc1ccc(Cl)c(OC(F)(F)F)c1 [Example 1.389] | ≤ 200 nM
COc1cc(NC(=O)c2ccnn2C)ccc1S(=O)(=O)Nc1cccc(C(F)(F)F)c1 [Example 1.153] | 200 to 750 nM
CCOc1cc(NC(=O)[C@@H](O)C(C)C)ccc1S(=O)(=O)Nc1cccc(C2CC2)c1 [Example 1.308] | ≤ 200 nM
CCOc1cc(NC(=O)C2CCOC2)ccc1S(=O)(=O)Nc1cccc(OC(F)(F)F)c1 (stereo not shown) [Example 1.058] | 200 to 750 nM
CCOc1cc(NC(=O)[C@@H](O)c2ccccc2)ccc1S(=O)(=O)Nc1ccc(Cl)c(OC(F)(F)F)c1 [Example 1.262] | ≤ 200 nM
N#Cc1cc(NC(=O)[C@@H](CO)c2ccccc2)ccc1S(=O)(=O)Nc1cccc(OC(F)(F)F)c1 [Example 1.024] | ≤ 200 nM
CCOc1cc(NC(=O)CC2(O)CCCCC2)ccc1S(=O)(=O)Nc1cccc(OC(F)(F)F)c1 [Example 1.474] | 200 to 750 nM
COc1cc(NC(=O)C2CC3CCC2O3)ccc1S(=O)(=O)Nc1cccc(OC(F)(F)F)c1 (stereo not shown) [Example 1.360] | 200 to 750 nM
CCOc1cc(NC(=O)c2cccc3cn[nH]c23)ccc1S(=O)(=O)Nc1cccc(OC(F)(F)F)c1 [Example 1.357] | 200 to 750 nM
COc1cc(NC(=O)CC2CCCC2)ccc1S(=O)(=O)Nc1cccc(C(F)(F)F)c1 [Example 1.069] | 200 to 750 nM
CCOc1cc(NC(=O)C(O)c2ccc3c(c2)OCO3)ccc1S(=O)(=O)Nc1cccc(OC(F)(F)F)c1 (stereo not shown) [Example 1.091] | 200 to 750 nM
CCC(C)[C@H](O)C(=O)Nc1ccc(S(=O)(=O)Nc2cccc(OC(F)(F)F)c2)c(OC)c1 (stereo partly shown) [Example 1.391] | ≤ 200 nM
Cc1cc(NC(=O)[C@@H]2CCCN2C(=O)OC(C)(C)C)ccc1S(=O)(=O)Nc1cccc(C(F)(F)F)c1 [Example 1.012] | 2000 to 20000 nM
CCOc1cc(NC(=O)C(O)c2ccc(Br)cc2)ccc1S(=O)(=O)Nc1cccc(OC(F)(F)F)c1 (stereo not shown) [Example 1.564] | 200 to 750 nM
CCOc1cc(NC(=O)C(OC)c2ccccc2)ccc1S(=O)(=O)Nc1cccc(OC(F)(F)F)c1 (stereo not shown) [Example 1.399] | ≤ 200 nM
CCOc1cc(NC(=O)C(C(=O)O)C2CCCC2)ccc1S(=O)(=O)Nc1cccc(OC(F)(F)F)c1 (stereo not shown) [Example 1.479] | ≤ 200 nM
C=Cc1cc(NS(=O)(=O)c2ccc(NC(=O)[C@@H](O)C(C)C)cc2OCC)ccc1C [Example 1.286] | ≤ 200 nM

Continued, values first:

IC50 | SMILES
≤ 200 nM | CCOc1cc(NC(=O)[C@@H](O)[C@@H](C)CC)ccc1S(=O)(=O)Nc1ccc(F)c(OC(F)(F)F)c1 [Example 1.259]
≤ 200 nM | CCOc1cc(NC(=O)C(O)C2CC2)ccc1S(=O)(=O)Nc1cccc(OC(F)(F)F)c1 (stereo not shown) [Example 1.198]
≤ 200 nM | C=Cc1cc(NS(=O)(=O)c2ccc(NC(=O)[C@@H](CO)C(C)C)cc2OCC)ccc1C [Example 1.548]
≤ 200 nM | CCOc1cc(NC(=O)[C@@H](O)C2CCCCC2)ccc1S(=O)(=O)Nc1cccc(OC(F)(F)F)c1 [Example 1.345]
≤ 200 nM | CCOc1cc(NC(=O)C(CC)C(=O)O)ccc1S(=O)(=O)Nc1cccc(OC(F)(F)F)c1 (stereo not shown) [Example 1.571]
≤ 200 nM | CCOc1cc(NC(=O)c2cncnc2)ccc1S(=O)(=O)Nc1cccc(OC(F)(F)F)c1 [Example 1.171]
≤ 200 nM | CCOc1cc(NC(=O)C(CN)c2ccccc2)ccc1S(=O)(=O)Nc1cccc(OC(F)(F)F)c1 (stereo not shown) [Example 1.104]
≤ 200 nM | CCc1cc(NC(=O)[C@@H](O)C(C)C)ccc1S(=O)(=O)Nc1cccc(OC(F)(F)F)c1 [Example 1.059]
≤ 200 nM | CCOc1cc(NC(=O)[C@H]2CCCC[C@H]2O)ccc1S(=O)(=O)Nc1cccc(OC(F)(F)F)c1 [Example 1.432]
≤ 200 nM | CCc1cc(NC(=O)c2ccnn2C)ccc1S(=O)(=O)Nc1cccc(C(F)(F)F)c1 [Example 1.232]
≤ 200 nM | CCOc1cc(NC(=O)[C@@H](CO)C(C)C)ccc1S(=O)(=O)Nc1cccc(OC(F)(F)F)c1 [Example 1.022]
≤ 200 nM | CCOc1cc(NC(=O)[C@@H](CO)C(C)C)ccc1S(=O)(=O)Nc1ccc(C)c(C(C)C)c1 [Example 1.057]
≤ 200 nM | CCc1cc(NC(=O)C2CCOCC2)ccc1S(=O)(=O)Nc1cccc(OC(F)(F)F)c1 [Example 1.056]
≤ 200 nM | CCc1cc(NC(=O)[C@@H](CO)C(C)C)ccc1S(=O)(=O)Nc1cccc(OC(F)(F)F)c1 [Example 1.201]
≤ 200 nM | CCOc1cc(NC(=O)c2ccc[n+]([O-])c2)ccc1S(=O)(=O)Nc1cccc(OC(F)(F)F)c1 [Example 1.510]
≤ 200 nM | CCOc1cc(NC(=O)[C@H]2CC=CC[C@H]2C(=O)O)ccc1S(=O)(=O)Nc1cccc(OC(F)(F)F)c1 [Example 1.160]
≤ 200 nM | CCOc1cc(NC(=O)[C@@H](CO)C2CC2)ccc1S(=O)(=O)Nc1cccc(OC(F)(F)F)c1 [Example 1.053]
≤ 200 nM | CCOc1cc(NC(=O)[C@@H](O)C(C)C)ccc1S(=O)(=O)Nc1ccc(Cl)c(OC(F)(F)F)c1 [Example 1.533]
≤ 200 nM | CCOc1cc(NC(=O)[C@H]2CCOC[C@H]2C)ccc1S(=O)(=O)Nc1cccc(OC(F)(F)F)c1 (racemic) [Example 1.514]
≤ 200 nM | COc1cc(NC(=O)c2ccnn2C)ccc1S(=O)(=O)Nc1ccc(Br)c(OC(F)(F)F)c1 [Example 1.397]
≤ 200 nM | CC(C)[C@H](CO)C(=O)Nc1ccc(S(=O)(=O)Nc2cccc(OC(F)(F)F)c2)c(C#N)c1 [Example 1.482]
≤ 200 nM | CCOc1cc(NC(=O)[C@@H](CO)c2ccccc2)ccc1S(=O)(=O)Nc1ccc(C)c(OC(F)(F)F)c1 [Example 1.003]
≤ 200 nM | CCOc1cc(NC(=O)[C@@H](CO)C(C)C)ccc1S(=O)(=O)Nc1cccc(C(C)C)c1 [Example 1.155]
≤ 200 nM | CCOc1cc(NC(=O)[C@@H](O)C(C)C)ccc1S(=O)(=O)Nc1ccc(C)c(C(C)C)c1 [Example 1.445]
≤ 200 nM | CCOc1cc(NC(=O)C(C(N)=O)C2CCCC2)ccc1S(=O)(=O)Nc1cccc(OC(F)(F)F)c1 (stereo not shown) [Example 1.245]

From patent US20230339851A1, “CXCR6 SULFONAMIDE COMPOUNDS” (CHEMOCENTRYX, INC., priority 2022, published 2023)
